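48-hour exposure; five concentrations; linearly interpolated endpoints. GI50: concentration for 50% inhibition of growth.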 The source made the active and inactive calls. Cut-off read from the data, not from the text of the source: active = GI50 up to about 1.1 µM and inactive = higher.
Experiments:
Experiment in all cases: growth of human tumour cells (NCI), 48 h
SK-MEL-5 = system: SK-MEL-5
MCF7 = system: MCF7
HT-29 = system: HT-29
UO-31 = system: UO-31
HCT-15 = system: HCT-15
PC-3 = system: PC-3
TK-10 = system: TK-10
K562 = system: K562
T47D = system: T47D
SK-MEL-2 = system: SK-MEL-2
HOP-92 = system: HOP-92
MDA-MB-231 = system: MDA-MB-231
RPMI-8226 = system: RPMI-8226
OVCAR-5 = system: OVCAR-5
LOX IMVI = system: LOX IMVI
UACC-257 = system: UACC-257
ACHN = system: ACHN
OVCAR-3 = system: OVCAR-3
A549 = system: A549
SK-MEL-28 = system: SK-MEL-28
Hs-578T = system: Hs-578T
NCI-H460 = system: NCI-H460
SW-620 = system: SW-620
SK-OV-3 = system: SK-OV-3
Malme-3M = system: Malme-3M
UACC-62 = system: UACC-62
EKVX = system: EKVX
NCI-H522 = system: NCI-H522
HCC 2998 = system: HCC 2998
IGROV-1 = system: IGROV-1
M14 = system: M14
HOP-62 = system: HOP-62
COLO 205 = system: COLO 205
HL-60 = system: HL-60
A498 = system: A498
SR = system: SR
CCRF-CEM = system: CCRF-CEM
RXF 393 = system: RXF 393
SF-268 = system: SF-268
NCI-H226 = system: NCI-H226
NCI/ADR-RES = system: NCI/ADR-RES
MOLT-4 = system: MOLT-4
SF-295 = system: SF-295
DU-145 = system: DU-145
NCI-H23 = system: NCI-H23
SN12C = system: SN12C
MDA-MB-435 = system: MDA-MB-435
KM12 = system: KM12
SF-539 = system: SF-539
OVCAR-4 = system: OVCAR-4
OVCAR-8 = system: OVCAR-8
BT-549 = system: BT-549
786-0 = system: 786-0
SNB-75 = system: SNB-75
U-251 = system: U-251
CAKI-1 = system: CAKI-1
SNB-19 = system: SNB-19
HCT-116 = system: HCT-116

O=C1c2cccc3cc([N+](=O)[O-])cc(c23)C(=O)N1Nc1ccc([N+](=O)[O-])cc1[N+](=O)[O-] was tested, and the GI50 (SK-MEL-5) was 13 µM (inactive), the GI50 (MCF7) was 14.5 µM (inactive) and the GI50 (HT-29) was 12.9 µM (inactive). The GI50 (UO-31) was 12.1 µM (inactive), the GI50 (HCT-15) was 14.5 µM and the GI50 (PC-3) was 17.9 µM (inactive). The GI50 (TK-10) was 31.8 µM (inactive), the GI50 (K562) was 4.29 µM (inactive) and the GI50 (T47D) was 16.4 µM (inactive). For the same molecule, the GI50 (SK-MEL-2) was > 100 µM (inactive), the GI50 (HOP-92) was 17.9 µM (inactive) and the GI50 (MDA-MB-231) was 16.8 µM (inactive). For the same molecule, the GI50 (RPMI-8226) was 12.8 µM (inactive), the GI50 (OVCAR-5) was > 70.5 µM (inactive) and the GI50 (LOX IMVI) was 10.5 µM (inactive). The GI50 (UACC-257) was 13.3 µM (inactive), the GI50 (ACHN) was 0.557 µM (active) and the GI50 (OVCAR-3) was 22.3 µM (inactive). For the same molecule, the GI50 (A549) was 16.3 µM (inactive), the GI50 (SK-MEL-28) was 11.9 µM (inactive) and the GI50 (Hs-578T) was > 31.6 µM (inactive). For the same molecule, the GI50 (NCI-H460) was 7.41 µM (inactive), the GI50 (SW-620) was 10 µM (inactive) and the GI50 (SK-OV-3) was > 31.6 µM (inactive). The GI50 (Malme-3M) was 20.1 µM (inactive), the GI50 (UACC-62) was 13.6 µM (inactive) and the GI50 (EKVX) was 24.4 µM (inactive). The GI50 (NCI-H522) was 11.6 µM (inactive), the GI50 (HCC 2998) was 14 µM (inactive) and the GI50 (IGROV-1) was 12.4 µM (inactive). The GI50 (M14) was 24.7 µM (inactive), the GI50 (HOP-62) was 14 µM (inactive) and the GI50 (COLO 205) was 11.5 µM (inactive). The GI50 (HL-60) was 4.23 µM (inactive), the GI50 (A498) was 18.4 µM (inactive) and the GI50 (SR) was 2.64 µM (inactive). For the same molecule, the GI50 (CCRF-CEM) was 1.85 µM (inactive), the GI50 (RXF 393) was 23.3 µM (inactive) and the GI50 (SF-268) was 21.7 µM (inactive). The GI50 (NCI-H226) was 14.5 µM (inactive), the GI50 (NCI/ADR-RES) was 19.1 µM (inactive) and the GI50 (MOLT-4) was 1.97 µM (inactive). The GI50 (SF-295) was 27 µM (inactive), the GI50 (DU-145) was 40.8 µM (inactive) and the GI50 (NCI-H23) was 17.9 µM (inactive). The GI50 (SN12C) was 22.8 µM (inactive), the GI50 (MDA-MB-435) was 20.2 µM (inactive) and the GI50 (KM12) was 14.6 µM (inactive). For the same molecule, the GI50 (SF-539) was 10.6 µM (inactive), the GI50 (OVCAR-4) was 19.3 µM (inactive) and the GI50 (OVCAR-8) was 13 µM (inactive). For the same molecule, the GI50 (BT-549) was 19.4 µM (inactive), the GI50 (786-0) was 13.6 µM (inactive) and the GI50 (SNB-75) was 18.2 µM (inactive). For the same molecule, the GI50 (U-251) was 13.3 µM (inactive), the GI50 (CAKI-1) was 15.1 µM (inactive) and the GI50 (SNB-19) was 18.2 µM (inactive). The GI50 (HCT-116) was 10.9 µM (inactive).

In the case of Cc1ccc([S+]([O-])C[C@](NC(=O)OCc2ccccc2)(Sc2ccccc2)C(F)F)cc1 (stereo partly drawn), the GI50 (SK-MEL-5) is reported as 13.3 µM (inactive), the GI50 (HT-29) is reported as 16.6 µM (inactive) and the GI50 (UO-31) is reported as 6.56 µM (inactive). The GI50 (HCT-15) was 17.1 µM, the GI50 (PC-3) was 21.2 µM (inactive) and the GI50 (TK-10) was 20.3 µM (inactive). For the same molecule, the GI50 (K562) was 10.2 µM (inactive), the GI50 (T47D) was 10.5 µM (inactive) and the GI50 (SK-MEL-2) was 27.6 µM (inactive). The GI50 (HOP-92) was 17.8 µM (inactive), the GI50 (MDA-MB-231) was 19.4 µM (inactive) and the GI50 (RPMI-8226) was 10.4 µM (inactive). The GI50 (OVCAR-5) was 31.6 µM (inactive), the GI50 (LOX IMVI) was 4.16 µM (inactive) and the GI50 (UACC-257) was 15 µM (inactive). For the same molecule, the GI50 (ACHN) was 20.7 µM (inactive), the GI50 (OVCAR-3) was 24.3 µM (inactive) and the GI50 (A549) was 28.6 µM (inactive). For the same molecule, the GI50 (SK-MEL-28) was 18 µM (inactive), the GI50 (Hs-578T) was 23.9 µM (inactive) and the GI50 (NCI-H460) was 17.9 µM (inactive). For the same molecule, the GI50 (SW-620) was 19.6 µM (inactive), the GI50 (SK-OV-3) was 16.7 µM (inactive) and the GI50 (Malme-3M) was 21.3 µM (inactive). For the same molecule, the GI50 (UACC-62) was 14.8 µM (inactive), the GI50 (EKVX) was 13.7 µM (inactive) and the GI50 (NCI-H522) was 7.13 µM (inactive). The GI50 (HCC 2998) was 18.7 µM (inactive), the GI50 (IGROV-1) was 8.69 µM (inactive) and the GI50 (M14) was 33.3 µM (inactive). For the same molecule, the GI50 (HOP-62) was 35.8 µM (inactive), the GI50 (COLO 205) was 19.4 µM (inactive) and the GI50 (HL-60) was 4.12 µM (inactive). For the same molecule, the GI50 (A498) was 13.5 µM (inactive), the GI50 (SR) was 10.8 µM (inactive) and the GI50 (CCRF-CEM) was 1.11 µM (active). For the same molecule, the GI50 (RXF 393) was 21.7 µM (inactive), the GI50 (SF-268) was 16.9 µM (inactive) and the GI50 (NCI-H226) was 12.9 µM (inactive). For the same molecule, the GI50 (NCI/ADR-RES) was 17 µM (inactive), the GI50 (MOLT-4) was 3.4 µM (inactive) and the GI50 (SF-295) was 16.8 µM (inactive). The GI50 (DU-145) was 18.7 µM (inactive), the GI50 (NCI-H23) was 17.7 µM (inactive) and the GI50 (MDA-MB-435) was 29.7 µM (inactive). The GI50 (KM12) was 14.6 µM (inactive), the GI50 (OVCAR-4) was 13.2 µM (inactive) and the GI50 (OVCAR-8) was 19.1 µM (inactive). For the same molecule, the GI50 (BT-549) was 16.3 µM (inactive), the GI50 (786-0) was 13 µM (inactive) and the GI50 (SNB-75) was 13.2 µM (inactive). The GI50 (U-251) was 17 µM (inactive), the GI50 (CAKI-1) was 21.5 µM (inactive) and the GI50 (SNB-19) was 14.4 µM (inactive). The GI50 (HCT-116) was 16.3 µM (inactive).

— ChEMBL document CHEMBL1201862, “PubChem BioAssay data set” (2004)
